Values quoted from earlier work, collected in patent US7943796B2, “Lubricating oil additive and lubricating oil composition containing same” (Chevron Oronise Company LLC, priority 2008, dated 2011).

Tested on: estrogen-inducible strain of yeast
Settings: among alkylphenols, compared with 17β-estradiol

CC(C)(C)CC(C)(C)c1ccc(O)cc1 [4-tert-octylphenol, 4-(1,1,3,3-Tetramethyl-butyl)-phenol]
estrogenic activity: highest activity
